Data: patent publication US12336981B2, “Compounds and compositions for the inhibition of NAMPT” (Valo Health, Inc., priority 2010, dated 2025)
Read-outs that look alike come from different tables or passages of the source.

Tests used:
A2780 cells = assay: In-vitro cell proliferation assay (SRB), A2780 cells; assay type: cell-based; conditions: Homo sapiens, A2780, 72 h, A2780 cells, 72 hours, read-out: A2780 IC50
Summary of the method: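 Read-out is SRB absorbance at 570 nm on TCA-fixed cells after 72 hours of compound treatment at 37° C. in 5% CO2. Background from a media-only plate is subtracted, and % inhibition is interpolated between two tested concentrations.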

NAMPT = target: T1, NAMPT (Homo sapiens, UniProt P43490); assay: Biochemical inhibition assay: NAMPT enzymatic reaction, NMN quantified by mass spectrometry; conditions: read-out: Biochem IC50
T1 construct: His tag; host or cells: E. coli
Summary of the method: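 Inhibition of E. coli-expressed His-tagged human NAMPT, measured as NMN formation by mass spectrometry after a 30 min room-temperature reaction containing 1 μM NAM, 100 μM PRPP and 2.5 mM ATP.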

T1 sequence (P43490 whole entry): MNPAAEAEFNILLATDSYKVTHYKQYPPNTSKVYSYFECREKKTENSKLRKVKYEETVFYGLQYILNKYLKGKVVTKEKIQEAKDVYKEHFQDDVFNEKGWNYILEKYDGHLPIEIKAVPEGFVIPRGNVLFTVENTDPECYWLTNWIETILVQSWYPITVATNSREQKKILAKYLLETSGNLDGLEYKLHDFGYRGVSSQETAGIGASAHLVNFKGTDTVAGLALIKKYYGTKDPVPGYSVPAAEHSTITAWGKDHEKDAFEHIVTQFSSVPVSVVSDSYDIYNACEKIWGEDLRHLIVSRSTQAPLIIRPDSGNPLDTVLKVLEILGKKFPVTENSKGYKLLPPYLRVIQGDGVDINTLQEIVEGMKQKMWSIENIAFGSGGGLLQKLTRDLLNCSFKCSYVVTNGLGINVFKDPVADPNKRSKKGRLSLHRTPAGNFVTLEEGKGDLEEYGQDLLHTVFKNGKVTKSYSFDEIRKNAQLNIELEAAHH

Compound	IC50 (A2780 cells; SRB)	IC50 (NAMPT; NAMPT enzymatic assay)	IC50 (A2780 cells; SRB assay)	IC50 (NAMPT; NAMPT enzymatic reaction)
O=C(NCc1ccc(S(=O)(=O)c2ccc(CO)cc2)cc1)c1cc2ccncc2s1 [N-[(4-{[4-(hydroxymethyl)benzene]sulfonyl}phenyl)methyl]thieno[2,3-c]pyridine-2-carboxamide]	6.6 nM	3.8 nM		
O=C(NCc1ccc(S(=O)(=O)N2CCCCC2)cc1)c1cc2cccnc2s1 [N-{[4-(piperidine-1-sulfonyl)phenyl]methyl}thieno[2,3-b]pyridine-2-carboxamide]			14000 nM	6150 nM
COc1c(C)cc(S(=O)(=O)c2ccc(CNC(=O)c3cnc4nccn4c3)cc2)cc1C	1.3 nM			2.7 nM
Cc1cc(-n2cccn2)ccc1S(=O)(=O)c1ccc(CNC(=O)c2ccc3nccn3c2)cc1 [N-[(4-{[2-methyl-4-(1H-pyrazol-1-yl)benzene]sulfonyl}phenyl)methyl]imidazo[1,2-a]pyridine-6-carboxamide]	3.6 nM	7.99 nM		
NS(=O)(=O)c1cccc(S(=O)(=O)c2ccc(CNC(=O)c3cnc4[nH]ncc4c3)cc2)c1 [N-({4-[(3-sulfamoylbenzene)sulfonyl]phenyl}methyl)-1H-pyrazolo[3,4-b]pyridine-5-carboxamide]	100 to 1000 nM			30.1 nM
CCOCc1ccc(S(=O)(=O)c2ccc(CNC(=O)c3cc4cnccc4[nH]3)cc2)cc1	6.8 nM	22.5 nM		
Cn1ncc2ccc(S(=O)(=O)c3ccc(CNC(=O)c4ccc5nccn5c4)cc3)cc21 [N-{[4-(1-methyl-1H-indazole-6-sulfonyl)phenyl]methyl}imidazo[1,2-a]pyridine-6-carboxamide]	3.9 nM	5 nM		
O=C(NCc1ccc(S(=O)(=O)c2cncc(F)c2)cc1)c1cc2ccncc2s1 [N-{[4-(5-fluoropyridine-3-sulfonyl)phenyl]methyl}thieno[2,3-c]pyridine-2-carboxamide]	6.4 nM	9.7 nM		
O=C(NCc1ccc(S(=O)(=O)c2cnc3n2CCCCC3)cc1)c1cnc2[nH]ncc2c1 [N-[(4-{5H,6H,7H,8H,9H-imidazo[1,2-a]azepine-3-sulfonyl}phenyl)methyl]-1H-pyrazolo[3,4-b]pyridine-5-carboxamide]	12.3 nM	31.6 nM		
CCCOc1ccc(S(=O)(=O)c2ccc(CNC(=O)c3cc4ccncc4o3)cc2)cc1Cl	11.9 nM			4.9 nM
COc1cc(Cl)c(C)cc1NS(=O)(=O)c1ccc(CNC(=O)c2cc3cnccc3[nH]2)cc1 [N-({4-[(4-chloro-2-methoxy-5-methylphenyl)sulfamoyl]phenyl}methyl)-1H-pyrrolo[3,2-c]pyridine-2-carboxamide]			18300 nM	7840 nM
COc1ccc(S(=O)(=O)c2ccc(CNC(=O)c3cnc4[nH]ncc4c3)cc2)c(OC)n1 [N-{[4-(2,6-dimethoxypyridine-3-sulfonyl)phenyl]methyl}-1H-pyrazolo[3,4-b]pyridine-5-carboxamide]	2 nM	30.7 nM		
O=C(NCc1ccc(S(=O)(=O)c2cnc3n2CCCCC3)cc1)c1cc2ccncc2o1 [N-[(4-{5H,6H,7H,8H,9H-imidazo[1,2-a]azepine-3-sulfonyl}phenyl)methyl]furo[2,3-c]pyridine-2-carboxamide]	5.7 nM	6 nM		
O=C(NCc1ccc(S(=O)(=O)c2ccc(C(F)(F)F)c(F)c2)cc1)c1cc2ccncc2o1	13.7 nM	9.2 nM		
Cc1nc(S(=O)(=O)c2ccc(CNC(=O)c3cc4ccncc4o3)cc2)ccc1F [N-{[4-(5-fluoro-6-methylpyridine-2-sulfonyl)phenyl]methyl}furo[2,3-c]pyridine-2-carboxamide]	12.4 nM	6.2 nM		
COc1cccc(OC(C)C)c1S(=O)(=O)c1ccc(CNC(=O)c2cc3cnccc3[nH]2)cc1 [N-[(4-{[2-methoxy-6-(propan-2-yloxy)benzene]sulfonyl}phenyl)methyl]-1H-pyrrolo[3,2-c]pyridine-2-carboxamide]			22 nM	36 nM
COc1c(C)cc(S(=O)(=O)c2ccc(CNC(=O)c3cc4cnccc4[nH]3)cc2)cc1C	1.7 nM			51.6 nM
CCOc1ccccc1S(=O)(=O)c1ccc(CNC(=O)c2cc3cnccc3[nH]2)cc1 [N-({4-[(2-ethoxybenzene)sulfonyl]phenyl}methyl)-1H-pyrrolo[3,2-c]pyridine-2-carboxamide]			2 nM	11 nM
COc1ccc(OC)c(S(=O)(=O)c2ccc(CNC(=O)c3cc4cnccc4[nH]3)cc2)c1 [N-({4-[(2,5-dimethoxybenzene)sulfonyl]phenyl}methyl)-1H-pyrrolo[3,2-c]pyridine-2-carboxamide]	6 nM	17 nM		
N#Cc1cccc(S(=O)(=O)c2ccc(CNC(=O)c3cnc4[nH]ncc4c3)cc2)c1 [N-({4-[(3-cyanobenzene)sulfonyl]phenyl}methyl)-1H-pyrazolo[3,4-b]pyridine-5-carboxamide]	9.54 nM			18.5 nM
CCCOc1ccc(S(=O)(=O)c2ccc(CNC(=O)c3cc4cnccc4[nH]3)cc2)cc1	6.7 nM			5.3 nM
COc1cc(S(=O)(=O)c2ccc(CNC(=O)c3cc4ccncc4s3)cc2)ccc1F [N-({4-[(4-fluoro-3-methoxybenzene)sulfonyl]phenyl}methyl)thieno[2,3-c]pyridine-2-carboxamide]	3.1 nM			9 nM

Compound	IC50 (A2780 cells; SRB)	IC50 (NAMPT; NAMPT enzymatic assay)	IC50 (A2780 cells; SRB assay)	IC50 (NAMPT; NAMPT enzymatic reaction)
O=C(NCc1ccc(S(=O)(=O)c2c(Cl)cccc2Cl)cc1)c1cc2ccncc2s1	18.2 nM			7.6 nM
Cc1ccc(Cl)cc1S(=O)(=O)c1ccc(CNC(=O)c2ccc3nccn3c2)cc1 [N-({4-[(5-chloro-2-methylbenzene)sulfonyl]phenyl}methyl)imidazo[1,2-a]pyridine-6-carboxamide]	3.7 nM			1.9 nM
COc1cc(C)cc(S(=O)(=O)c2ccc(CNC(=O)c3cnc4[nH]ncc4c3)cc2)c1OC	58.6 nM			146 nM
O=C(NCc1ccc(S(=O)(=O)c2ccc3c(c2)OCCO3)cc1)c1cc2ccncc2o1 [N-{[4-(2,3-dihydro-1,4-benzodioxine-6-sulfonyl)phenyl]methyl}furo[2,3-c]pyridine-2-carboxamide]	6.2 nM	5.5 nM		
Cc1ccc(S(=O)(=O)c2ccc(CNC(=O)c3cc4ccncc4s3)cc2)cc1C [N-({4-[(3,4-dimethylbenzene)sulfonyl]phenyl}methyl)thieno[2,3-c]pyridine-2-carboxamide]			2.3 nM	6 nM
CC(C)Oc1ccc(S(=O)(=O)c2ccc(CNC(=O)c3cnc4[nH]ncc4c3)cc2)cc1 [N-[(4-{[4-(propan-2-yloxy)benzene]sulfonyl}phenyl)methyl]-1H-pyrazolo[3,4-b]pyridine-5-carboxamide]	6.6 nM	8 nM		
COc1ccc(S(=O)(=O)c2ccc(CNC(=O)c3cc4cnccc4[nH]3)cc2)c(C(F)(F)F)c1	13 nM	80.4 nM		
Cc1cc(F)cc(S(=O)(=O)c2ccc(CNC(=O)c3cc4cnccc4[nH]3)cc2)c1	1.8 nM			8.3 nM
O=C(NCc1ccc(S(=O)(=O)c2ccccc2Oc2ccccc2)cc1)c1cnc2nccn2c1	100 to 1000 nM			8.5 nM
COCc1cccc(S(=O)(=O)c2ccc(CNC(=O)c3cc4cnccc4[nH]3)cc2)c1 [N-[(4-{[3-(methoxymethyl)benzene]sulfonyl}phenyl)methyl]-1H-pyrrolo[3,2-c]pyridine-2-carboxamide]	12.8 nM	20.2 nM		
COc1cc(Cl)cc(S(=O)(=O)c2ccc(CNC(=O)c3cc4cnccc4[nH]3)cc2)c1 [N-({4-[(3-chloro-5-methoxybenzene)sulfonyl]phenyl}methyl)-1H-pyrrolo[3,2-c]pyridine-2-carboxamide]	2.5 nM			17 nM
CCOc1ccc(-c2ccc(S(=O)(=O)c3ccc(CNC(=O)c4cc5cnccc5[nH]4)cc3)cc2)cc1 [N-[(4-{[4-(4-ethoxyphenyl)benzene]sulfonyl}phenyl)methyl]-1H-pyrrolo[3,2-c]pyridine-2-carboxamide]	9 nM	9 nM		
O=C(NCc1ccc(S(=O)(=O)c2ccc(F)c(C(F)(F)F)c2)cc1)c1cnc2[nH]ncc2c1 [N-[(4-{[4-fluoro-3-(trifluoromethyl)benzene]sulfonyl}phenyl)methyl]-1H-pyrazolo[3,4-b]pyridine-5-carboxamide]	13.8 nM	39.4 nM		
Cc1cc(-n2cccn2)ccc1S(=O)(=O)c1ccc(CNC(=O)c2cnc3[nH]ncc3c2)cc1	23.5 nM	27.1 nM		
Cc1ccc(F)c(S(=O)(=O)c2ccc(CNC(=O)c3cc4ccncc4o3)cc2)c1	13.4 nM			5.9 nM
CS(=O)(=O)c1ccccc1S(=O)(=O)c1ccc(CNC(=O)c2cc3ccncc3o2)cc1	100 to 1000 nM			54.2 nM
Cc1nc(S(=O)(=O)c2ccc(CNC(=O)c3cc4ccncc4o3)cc2)cs1 [N-{[4-(2-methyl-1,3-thiazole-4-sulfonyl)phenyl]methyl}furo[2,3-c]pyridine-2-carboxamide]	69 nM	36.7 nM		
Cc1cccc(S(=O)(=O)c2ccc(CNC(=O)c3cnc4nccn4c3)cc2)c1C	46.9 nM			4.1 nM
CCCn1cc(S(=O)(=O)c2ccc(CNC(=O)c3cc4ccncc4s3)cc2)cn1 [N-{[4-(1-propyl-1H-pyrazole-4-sulfonyl)phenyl]methyl}thieno[2,3-c]pyridine-2-carboxamide]	1.6 nM	1.9 nM		
CCc1ccc(S(=O)(=O)c2ccc(CNC(=O)c3cc4cnccc4[nH]3)cc2)cc1 [N-({4-[(4-ethylbenzene)sulfonyl]phenyl}methyl)-1H-pyrrolo[3,2-c]pyridine-2-carboxamide]			12 nM	8 nM
CCOc1cc(Cl)ccc1S(=O)(=O)c1ccc(CNC(=O)c2cc3cnccc3[nH]2)cc1	0.4 nM			11.2 nM
